Measurements taken from patent US12077503B2, “Substituted cyclic amides and their use as herbicides” (FMC CORPORATION, priority 2015, dated 2024).

Assays:
Assay type in all cases: in vivo
[1] = tested on: giant foxtail (Setaria faberi); experiment: Test G Post-Emergence Protocol; conditions: Setaria faberi, post-emergence, 312 h, read-out: Foxtail, Giant damage rating; for pest or weed control at 15.625 g/ha: 15.625 g ai/ha, evaluated after 13 days (100=total damage to plant; 0=no damage to plant); for pest or weed control at 62.5 g/ha: 62.5 g ai/ha; for pest or weed control at 62.5 g/ha / pest or weed control at 250 g/ha: evaluated after 13 days, 100=total damage to plant, 0=no damage to plant; for pest or weed control at 250 g/ha: 250 g ai/ha
Outline: (§1)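 Seedlings grown 8 days in soil in a glasshouse (24/16 °C day/night, 14 h light, 65% humidity) were sprayed post-emergence with compound in acetone/water 50:50 plus 0.5% Tween 20 at 15.625, 62.5 or 250 g/ha. Damage was scored after 13 days on a 0–100 scale (100 = total damage).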

[2] = tested on: velvetleaf (Abutilon theophrasti); experiment: Test G Post-Emergence Protocol; conditions: Abutilon theophrasti, post-emergence, 312 h, read-out: Velvetleaf damage rating; for pest or weed control at 15.625 g/ha: 15.625 g ai/ha, evaluated after 13 days (100=total damage to plant; 0=no damage to plant); for pest or weed control at 62.5 g/ha: 62.5 g ai/ha; for pest or weed control at 62.5 g/ha / pest or weed control at 250 g/ha: evaluated after 13 days, 100=total damage to plant, 0=no damage to plant; for pest or weed control at 250 g/ha: 250 g ai/ha
Outline: as §1

corn (Zea mays) [3] = experiment: Test G Post-Emergence Protocol; conditions: Zea mays, post-emergence, 312 h, read-out: Corn damage rating; for plant injury at 15.625 g/ha: 15.625 g ai/ha, evaluated after 13 days (100=total damage to plant; 0=no damage to plant); for plant injury at 62.5 g/ha: 62.5 g ai/ha; for plant injury at 62.5 g/ha / plant injury at 250 g/ha: evaluated after 13 days, 100=total damage to plant, 0=no damage to plant; for plant injury at 250 g/ha: 250 g ai/ha
Outline: as §1

[4] = tested on: redroot pigweed (Amaranthus retroflexus); experiment: Test G Post-Emergence Protocol; conditions: Amaranthus retroflexus, post-emergence, 312 h, read-out: Pigweed, Redroot damage rating; for pest or weed control at 15.625 g/ha: 15.625 g ai/ha, evaluated after 13 days (100=total damage to plant; 0=no damage to plant); for pest or weed control at 62.5 g/ha: 62.5 g ai/ha; for pest or weed control at 62.5 g/ha / pest or weed control at 250 g/ha: evaluated after 13 days, 100=total damage to plant, 0=no damage to plant; for pest or weed control at 250 g/ha: 250 g ai/ha
Outline: as §1

[5] = tested on: ivy-leaved morning glory (Ipomoea hederacea); experiment: Test G Post-Emergence Protocol; conditions: Ipomoea, post-emergence, 312 h, read-out: Morningglory, Ivy-leaved damage rating; for pest or weed control at 15.625 g/ha: 15.625 g ai/ha, evaluated after 13 days (100=total damage to plant; 0=no damage to plant); for pest or weed control at 62.5 g/ha: 62.5 g ai/ha; for pest or weed control at 62.5 g/ha / pest or weed control at 250 g/ha: evaluated after 13 days, 100=total damage to plant, 0=no damage to plant; for pest or weed control at 250 g/ha: 250 g ai/ha
Outline: as §1

[6] = tested on: barnyardgrass (Echinochloa crus-galli); experiment: Test G Post-Emergence Protocol; conditions: Echinochloa crus-galli, post-emergence, 312 h, read-out: Barnyardgrass damage rating; for pest or weed control at 15.625 g/ha: 15.625 g ai/ha, evaluated after 13 days (100=total damage to plant; 0=no damage to plant); for pest or weed control at 62.5 g/ha: 62.5 g ai/ha; for pest or weed control at 62.5 g/ha / pest or weed control at 250 g/ha: evaluated after 13 days, 100=total damage to plant, 0=no damage to plant; for pest or weed control at 250 g/ha: 250 g ai/ha
Outline: as §1

[7] = tested on: giant foxtail (Setaria faberi); experiment: Test G Pre-Emergence Protocol; conditions: Setaria faberi, pre-emergence, 312 h, evaluated after 13 days; for pest or weed control at 15.625 g/ha: 15.625 g ai/ha; for pest or weed control at 15.625 g/ha / pest or weed control at 250 g/ha: read-out: Foxtail, Giant damage rating (100=total damage to plant; 0=no damage to plant); for pest or weed control at 62.5 g/ha: 62.5 g ai/ha, 100=total damage to plant, 0=no damage to plant, read-out: Foxtail, Giant damage rating; for pest or weed control at 250 g/ha: 250 g ai/ha
Outline: (§2)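 Pre-emergence spray, 15.625/62.5/250 g/ha, vehicle acetone:water 50:50 + 0.5% Tween 20, applied 1 d after sowing. Glasshouse 24/16° C, 14 h light, 65% RH, watered twice daily. Visual damage rating at 13 d, 0–100 scale.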

[8] = tested on: velvetleaf (Abutilon theophrasti); experiment: Test G Pre-Emergence Protocol; conditions: Abutilon theophrasti, pre-emergence, 312 h, evaluated after 13 days; for pest or weed control at 15.625 g/ha: 15.625 g ai/ha; for pest or weed control at 15.625 g/ha / pest or weed control at 250 g/ha: read-out: Velvetleaf damage rating (100=total damage to plant; 0=no damage to plant); for pest or weed control at 62.5 g/ha: 62.5 g ai/ha, 100=total damage to plant, 0=no damage to plant, read-out: Velvetleaf damage rating; for pest or weed control at 250 g/ha: 250 g ai/ha
Outline: as §2

corn (Zea mays) [9] = experiment: Test G Pre-Emergence Protocol; conditions: Zea mays, pre-emergence, 312 h, evaluated after 13 days; for plant injury at 15.625 g/ha: 15.625 g ai/ha; for plant injury at 15.625 g/ha / plant injury at 250 g/ha: read-out: Corn damage rating (100=total damage to plant; 0=no damage to plant); for plant injury at 62.5 g/ha: 62.5 g ai/ha, 100=total damage to plant, 0=no damage to plant, read-out: Corn damage rating; for plant injury at 250 g/ha: 250 g ai/ha
Outline: as §2

[10] = tested on: redroot pigweed (Amaranthus retroflexus); experiment: Test G Pre-Emergence Protocol; conditions: Amaranthus retroflexus, pre-emergence, 312 h, evaluated after 13 days; for pest or weed control at 15.625 g/ha: 15.625 g ai/ha; for pest or weed control at 15.625 g/ha / pest or weed control at 250 g/ha: read-out: Pigweed, Redroot damage rating (100=total damage to plant; 0=no damage to plant); for pest or weed control at 62.5 g/ha: 62.5 g ai/ha, 100=total damage to plant, 0=no damage to plant, read-out: Pigweed, Redroot damage rating; for pest or weed control at 250 g/ha: 250 g ai/ha
Outline: as §2

[11] = tested on: ivy-leaved morning glory (Ipomoea hederacea); experiment: Test G Pre-Emergence Protocol; conditions: Ipomoea, pre-emergence, 312 h, evaluated after 13 days; for pest or weed control at 15.625 g/ha: 15.625 g ai/ha; for pest or weed control at 15.625 g/ha / pest or weed control at 250 g/ha: read-out: Morningglory, Ivy-leaved damage rating (100=total damage to plant; 0=no damage to plant); for pest or weed control at 62.5 g/ha: 62.5 g ai/ha, 100=total damage to plant, 0=no damage to plant, read-out: Morningglory, Ivy-leaved damage rating; for pest or weed control at 250 g/ha: 250 g ai/ha
Outline: as §2

[12] = tested on: barnyardgrass (Echinochloa crus-galli); experiment: Test G Pre-Emergence Protocol; conditions: Echinochloa crus-galli, pre-emergence, 312 h, evaluated after 13 days; for pest or weed control at 15.625 g/ha: 15.625 g ai/ha; for pest or weed control at 15.625 g/ha / pest or weed control at 250 g/ha: read-out: Barnyardgrass damage rating (100=total damage to plant; 0=no damage to plant); for pest or weed control at 62.5 g/ha: 62.5 g ai/ha, 100=total damage to plant, 0=no damage to plant, read-out: Barnyardgrass damage rating; for pest or weed control at 250 g/ha: 250 g ai/ha
Outline: as §2

| SMILES | pest or weed control at 15.625 g/ha [1] | pest or weed control at 62.5 g/ha [1] | pest or weed control at 250 g/ha [1] | pest or weed control at 15.625 g/ha [2] | pest or weed control at 62.5 g/ha [2] | pest or weed control at 250 g/ha [2] | plant injury at 15.625 g/ha (corn (Zea mays) [3]) | plant injury at 62.5 g/ha (corn (Zea mays) [3]) | plant injury at 250 g/ha (corn (Zea mays) [3]) | pest or weed control at 15.625 g/ha [4] | pest or weed control at 62.5 g/ha [4] | pest or weed control at 250 g/ha [4] | pest or weed control at 15.625 g/ha [5] | pest or weed control at 62.5 g/ha [5] | pest or weed control at 250 g/ha [5] | pest or weed control at 15.625 g/ha [6] | pest or weed control at 62.5 g/ha [6] | pest or weed control at 250 g/ha [6] | pest or weed control at 15.625 g/ha [7] | pest or weed control at 62.5 g/ha [7] | further results |
| --- | --- | --- | --- | --- | --- | --- | --- | --- | --- | --- | --- | --- | --- | --- | --- | --- | --- | --- | --- | --- | --- |
| CN1C[C@@H](c2ccc(CF)cc2)[C@H](C(=O)Nc2cccc(F)c2F)C1=O (racemic) [Compound 1822] | 70% | 80% | 80% | 0% | 30% | 40% | 0% | 40% | 60% | 0% | 10% | 30% | 20% | 10% | 30% | 70% | 80% | 80% | 90% | 90% | pest or weed control at 250 g/ha [7]: 90%; pest or weed control at 15.625 g/ha [8]: 0%; pest or weed control at 62.5 g/ha [8]: 60%; pest or weed control at 250 g/ha [8]: 80%; plant injury at 15.625 g/ha (corn (Zea mays) [9]): 0%; plant injury at 62.5 g/ha (corn (Zea mays) [9]): 20%; plant injury at 250 g/ha (corn (Zea mays) [9]): 70%; pest or weed control at 15.625 g/ha [10]: 0%; pest or weed control at 62.5 g/ha [10]: 60%; pest or weed control at 250 g/ha [10]: 80%; pest or weed control at 15.625 g/ha [11]: 0%; pest or weed control at 62.5 g/ha [11]: 20%; pest or weed control at 250 g/ha [11]: 80%; pest or weed control at 15.625 g/ha [12]: 70%; pest or weed control at 62.5 g/ha [12]: 90%; pest or weed control at 250 g/ha [12]: 90% |
| Cc1nc(Cl)ccc1NC(=O)[C@H]1C(=O)N(C)C[C@@H]1c1ccc(C(F)(F)F)cc1 (racemic) [Compound 1825] | 0% | 0% | 50% | 0% | 0% | 20% | 0% | 0% | 10% | 0% | 0% | 10% | 0% | 0% | 20% | 0% | 0% | 0% | 0% | 20% | pest or weed control at 250 g/ha [7]: 70%; pest or weed control at 15.625 g/ha [8]: 0%; pest or weed control at 62.5 g/ha [8]: 0%; pest or weed control at 250 g/ha [8]: 0%; plant injury at 15.625 g/ha (corn (Zea mays) [9]): 0%; plant injury at 62.5 g/ha (corn (Zea mays) [9]): 0%; plant injury at 250 g/ha (corn (Zea mays) [9]): 0%; pest or weed control at 15.625 g/ha [10]: 0%; pest or weed control at 62.5 g/ha [10]: 0%; pest or weed control at 250 g/ha [10]: 0%; pest or weed control at 15.625 g/ha [11]: 0%; pest or weed control at 62.5 g/ha [11]: 0%; pest or weed control at 250 g/ha [11]: 0%; pest or weed control at 15.625 g/ha [12]: 0%; pest or weed control at 62.5 g/ha [12]: 0%; pest or weed control at 250 g/ha [12]: 0% |
| CON1C[C@H](c2ccc(C(F)(F)F)cc2)[C@@H](C(=O)Nc2cccc(F)c2F)C1=O (racemic) [Compound 1836] | 50% | 70% | 70% | 10% | 20% | 50% | 0% | 10% | 70% | 20% | 60% | 70% | 20% | 20% | 40% | 0% | 70% | 80% | 50% | 80% | pest or weed control at 250 g/ha [7]: 90%; pest or weed control at 15.625 g/ha [8]: 0%; pest or weed control at 62.5 g/ha [8]: 0%; pest or weed control at 250 g/ha [8]: 30%; plant injury at 15.625 g/ha (corn (Zea mays) [9]): 10%; plant injury at 62.5 g/ha (corn (Zea mays) [9]): 10%; plant injury at 250 g/ha (corn (Zea mays) [9]): 80%; pest or weed control at 15.625 g/ha [10]: 0%; pest or weed control at 62.5 g/ha [10]: 50%; pest or weed control at 250 g/ha [10]: 50%; pest or weed control at 15.625 g/ha [11]: 10%; pest or weed control at 62.5 g/ha [11]: 20%; pest or weed control at 250 g/ha [11]: 30%; pest or weed control at 15.625 g/ha [12]: 10%; pest or weed control at 62.5 g/ha [12]: 70%; pest or weed control at 250 g/ha [12]: 80% |
